The numbers were not newly measured in patent publication US10617778B2, “Self-sterilizing package and methods for making and using the same” (priority 2014, dated 2020), which cites them from elsewhere.

For this data set, the system named is humans.

On to `[O][Cl+][O-]` [chlorine dioxide], for which the “vapor concentration at which the gas can be toxic” value is given as “greater than 0.3 ppm”.
